The values that follow come from US20240254138A1, “TRICYCLIC PYRIMIDINES AS CYCLIN-DEPENDENT KINASE 7 (CDK7) INHIBITORS” (JANSSEN PHARMACEUTICA NV, priority 2021, published 2024).

Structures are written as SMILES.

In experiment [1] the test system is RNA Polymerase II Serine 5 phosphorylation in A549 cells overexpressing CDK7-mutant (C312S). Nature of the experiment: Imaging-based cellular RNA PolII Ser5 phosphorylation assay in A549 cells overexpressing CDK7-mutant (C312S). Type of experiment: cell-based, human. As to conditions: RNA PolII Ser5 phosphorylation, averaged over all measurements; for IC50: Homo sapiens, A549, A549 cells overexpressing CDK7-mutant (C312S), read-out: CDK7_A549 mutant hCDK7(pIC50) (converted); for CDK7_A549 mutant hCDK7(pIC50): A549 cells overexpressing CDK7-mutant (C312S). An excerpt:
(§1) To evaluate inhibition of CDK7 kinase activity, a 384-well automated imaging assay was used. This assay detects Serine 5 phosphorylation on a unique heptapeptide sequence in the C-terminal domain of Rpb1 subunit of RNA polymerase II, the downstream substrate of CDK7. This heptapeptide sequence is repeated up to 52 times in the CTD of Rpb1.
(§2) A549 adenocarcinoma human alveolar basal epithelial cells (ATCC, CCL-185), rabbit Phospho-Rpb1 CTD (Ser5) antibody (D9N51 (Cell Signaling Technology)), DMEM (Sigma), Fetal Bovine Serum (Biowest), L-glutamine (Sigma), Penicillin/Streptomycin (Life Technologies), Sodium Pyruvate (Sigma), Hepes (Sigma), poly-D-lysine coated μclear 384 black plates (Greiner), formaldehyde (PolySciences), D-PBS (Sigma), Methanol (Sigma), Alexa Fluor 488 goat anti rabbit IgG secondary antibody (Life Technologies), HCS CellMask™ Deep Red stain (Life Technologies), Hoechst 33258 (Invitrogen).
(§3) RNA Polymerase II Serine 5 phosphorylation was detected using a specific rabbit Phospho-Rpb1 CTD (Ser5) antibody. A549 adenocarcinoma human alveolar basal epithelial cells were seeded in 20 μl medium (DMEM supplemented with 1% Fetal Bovine Serum (heat inactivated 30′ 56° C.), 2 mM L-glutamine, 50 U/ml penicillin 50 μg/ml streptomycin, 1 mM sodium pyruvate and 50 mM hepes) at 1000 cells/well and cultured in poly-D-lysine coated μclear 384 black plates for 20 hours at 37° C. and 5% CO2.
(§4) After incubation cells were challenged with compound for 3 hours at 37° C. and 5% CO2. DMSO was used as high control and as low control 10 μM of the following reference compound was used:
(§5) 40 nl of test compounds and controls were spotted in cell plates using Echo Liquid Handler (Echo 550, Labcyte). Incubation was followed by 20 minutes fixation with 20 μl 10% formaldehyde at room temperature. Medium/formaldehyde solution was removed, plates were washed 3 times with 30 μl D-PBS (w/o Ca^2+ and Ma^2+) and permeabilization was done by adding 20 μl ice cold methanol for 20 minutes. Cells were washed again 3 times with 30 μl D-PBS and 20 μl blocking buffer (25 ml fetal bovine serum in 500 ml D-PBS) was added for 1 hour.
(§6) After removing blocking buffer 20 μl 1/1000 primary antibody rabbit Phospho-Rpb1 CTD (Ser5) antibody was added which binds to the phosphorylated Serine5 of the heptapeptide sequences in the CTD of Rpb1. Primary antibody was removed, and plates were washed 3 times with 30 μl D-PBS followed by addition of 20 μl 1/2000 Alexa Fluor 488 goat anti rabbit IgG secondary antibody for final detection of Phospho-Rpb1 CTD (Ser5) together with 1/5000 HCS CellMask™ Deep Red stain for membrane staining and 1/5000 Hoechst 33258 for nucleus staining. Last, plates were washed 2 times with 30 μl D-PBS and wells were filled with 40 μL D-PBS, plates were sealed (Thermowell sealing tape) and stored at 4° C. until reading. Plates were read with Opera Phenix (Perkin Elmer) with 10× air objective. Data were calculated and analyzed in Phaedra.
(§7) IC50 values were calculated using the following formula: […]
(§8) Average value of all HC's and all LC's are used for normalizations.
(§9) A best-fit curve is fitted by a minimum sum of squares method to the plot of % Control vs. compound concentration. From this an IC50 value can be obtained. An estimate of the slope of the plot in terms of the Hill coefficient is also obtained.
In parallel this assay was performed in A549 cells overexpressing CDK7-mutant (C312S) to evaluate the effect of the covalent bond on potency and to screen for potential off-target effects. Mutation of Cysteine to Serine (C312S), a less nucleophilic amino acid, prevents CDK7 inhibitors from covalently binding to CDK7 and from inhibiting CDK7 activity in an irreversible manner. A stably transduced A549 cell pool was generated that overexpresses CDK7 mutant (C312S), but also expresses endogenous CDK7-WT. Covalent binders targeting the cysteine at position 312 will show a shift in potency in A549 cells overexpressing mutant C312S CDK7.

The test system of experiment [2] is RNA Polymerase II Serine 5 phosphorylation (Rpb1 CTD, downstream substrate of CDK7) in A549 cells. Nature of the experiment: Imaging-based cellular RNA PolII Ser5 phosphorylation assay in A549 cells. Type of experiment: cell-based, human. As to conditions: wild-type CDK7, RNA PolII Ser5 phosphorylation, averaged over all measurements; for IC50: Homo sapiens, A549, A549 cells, read-out: CDK7_A549 Wild-type CDK7 (pIC50) (converted); for CDK7_A549 Wild-type CDK7 (pIC50): A549 cells.
Description: as §1, §2, §3, §4, §5, §6, §7, §8, §9

As to `C=CC(=O)N1CC[C@@H](N2CC(c3cc4c(c(C#N)n3)OCc3c(N5CCOCC5)ccnc3N4)C2)C1` (single isomer, unassigned) [Compound 474], the IC50 in experiment [1] was above 10 µM; in experiment [2] it was 0.575 µM.

As to `CC#CC(=O)N1CC(N2CCC(c3cc4c(c(C#N)n3)O[C@H](C)c3c(N5CCOCC5)ccnc3N4)CC2)C1` (single isomer, unassigned) [Compound 481], the results for the IC50 in experiment [1] and in experiment [2] were above 10 µM and 3.02 µM, respectively.

In the case of `CC#CC(=O)N1CC(N2CCC(c3cc4c(c(C#N)n3)O[C@@H](C)c3c(N5CCOCC5)ccnc3N4)CC2)C1` (single isomer, unassigned) [Compound 485], the IC50 is above 10 µM in experiment [1] and 0.12 µM in experiment [2].

On to `C#Cc1cc(C2CN([C@H]3CCN(C(=O)C=C)C3)C2)cc2c1OCc1c(-c3cnn(C)c3)ccnc1N2` (single isomer, unassigned) [Compound 492], for which the results for the IC50 in experiment [1] and in experiment [2] were 9.55 µM and 0.126 µM, respectively.

As to `CC#CC(=O)N1CC[C@H](N2CC(c3cc4c(c(C)n3)O[C@@H](C)c3c(N5CCOCC5)ccnc3N4)C2)C1` (single isomer, unassigned) [Compound 512], the IC50 in experiment [1] is above 10 µM. Besides, the “CDK7_A549 Wild-type CDK7 (pIC50)” value in experiment [2] is listed as 7.56.

As for `CC#CC(=O)N1CC[C@@H](N2CC(c3cc4c(c(C)n3)O[C@H](C)c3c(N5CCOCC5)ccnc3N4)C2)C1` (single isomer, unassigned) [Compound 513], the IC50 in experiment [1] is above 10 µM. For the same compound, the “CDK7_A549 Wild-type CDK7 (pIC50)” value in experiment [2] turned out to be 6.36.

As for `CC#CC(=O)N1CC[C@@H](N2CC(c3cc4c(c(C)n3)O[C@@H](C)c3c(N5CCOCC5)ccnc3N4)C2)C1` (single isomer, unassigned) [Compound 515], the IC50 in experiment [1] was 8.91 µM; in experiment [2], around 0.0115 µM.

Take `CC#CC(=O)N1CC[C@H](N2CC(c3cc4c(c(C)n3)O[C@H](C)c3c(N5CCOCC5)ccnc3N4)C2)C1` (single isomer, unassigned) [Compound 516]: the IC50 in experiment [1] was above 10 µM. Further, in experiment [2], the “CDK7_A549 Wild-type CDK7 (pIC50)” value is given as 5.68.

For `CC#CC(=O)N1CC(N2CCC(c3cc4c(c(C)n3)O[C@H](C)c3c(N5CCOCC5)ccnc3N4)CC2)C1` (single isomer, unassigned) [Compound 524], the “CDK7_A549 mutant hCDK7(pIC50)” value in experiment [1] is given as below 5. The “CDK7_A549 Wild-type CDK7 (pIC50)” value in experiment [2] came to 5.03.

With `CC#CC(=O)N1CC[C@H](N2CC(c3cc4c(c(C)n3)O[C@H](C)c3c(N5CCOCC5)ccnc3N4)C2)C1` (single isomer, unassigned) [Compound 530], the “CDK7_A549 mutant hCDK7(pIC50)” value in experiment [1] was below 5. In addition, in experiment [2], the “CDK7_A549 Wild-type CDK7 (pIC50)” value is below 5.

In the case of `CC#CC(=O)N1CC[C@@H](N2CC(c3cc4c(c(C)n3)O[C@H](C)c3c(N5CCOCC5)ccnc3N4)C2)C1` (single isomer, unassigned) [Compound 531], the “CDK7_A549 mutant hCDK7(pIC50)” value in experiment [1] is below 5. For the same compound, the “CDK7_A549 Wild-type CDK7 (pIC50)” value in experiment [2] was below 5.

On to `CC#CC(=O)N1CC[C@H](N2CC(c3cc4c(c(C)n3)O[C@@H](C)c3c(N5CCOCC5)ccnc3N4)C2)C1` (single isomer, unassigned) [Compound 533], for which, in experiment [1], the “CDK7_A549 mutant hCDK7(pIC50)” value is recorded as below 5. In addition, the “CDK7_A549 Wild-type CDK7 (pIC50)” value in experiment [2] was 6.33.

With `CC#CC(=O)N1CC(N2CCC(c3cc4c(c(C)n3)O[C@@H](C)c3c(-c5cnn(C)c5)ccnc3N4)CC2)C1` (single isomer, unassigned) [Compound 534], the values for the IC50 in experiment [1] and in experiment [2] were above 10 µM and around 9.55 µM, respectively.

Regarding `CC#CC(=O)N1CCC(N2CCC(c3cc4c(c(C)n3)O[C@@H](C)c3c(N5CCOCC5)ccnc3N4)CC2)C1` (single isomer, unassigned) [Compound 535], the IC50 is around 10 µM in experiment [1] and 0.0631 µM in experiment [2].

With `CC#CC(=O)N1CCC(N2CC(c3cc4c(c(C#N)n3)O[C@H](C)c3c(N5CCOCC5)ccnc3N4)C2)CC1` (single isomer, unassigned) [Compound 544], the IC50 in experiment [1] is above 10 µM; in experiment [2] it was 2.95 µM.

Consider `CC#CC(=O)N1CCC(N2CC(c3cc4c(c(C#N)n3)O[C@@H](C)c3c(N5CCOCC5)ccnc3N4)C2)CC1` (single isomer, unassigned) [Compound 545], for which the IC50 in experiment [1] was 2.82 µM; in experiment [2], 0.117 µM.

As to `C=CC(=O)N1CCC(Cc2ccc3c(c2)Nc2nccc(-c4cncc(C)c4)c2CO3)C1` (stereo not drawn) [Compound 5], the IC50 in experiment [1] and in experiment [2] was above 10 µM throughout.

On to `C=CC(=O)N1CCC(Cc2ccc3c(c2)Nc2nccc(-c4cnccc4C)c2CO3)C1` (stereo not drawn) [Compound 6], for which the IC50 is above 10 µM in experiment [1] and around 9.33 µM in experiment [2].

With `C=CC(=O)N1CC(N2CCC(c3cc(C)c4c(c3)Nc3nccc(N5CCOCC5)c3CO4)CC2)C1` [Compound 20], the results for the IC50 in experiment [1] and in experiment [2] were above 10 µM and 0.0589 µM, respectively.

In the case of `C=CC(=O)N1CC(N2CCC(c3cc(C)c4c(c3)Nc3nccc(N5CCOCC5)c3CO4)CC2)C1` [Compound 21], the “CDK7_A549 mutant hCDK7(pIC50)” value in experiment [1] is given as below 5. Also, in experiment [2], the “CDK7_A549 Wild-type CDK7 (pIC50)” value stood at 7.34.

For the compound `C/C=C/C(=O)N1CC(N2CCC(c3ccc4c(c3)Nc3nccc(N5CCOCC5)c3CO4)CC2)C1` [Compound 106], the IC50 was above 10 µM in experiment [1] and around 10 µM in experiment [2].

Consider `C=CC(=O)N1CCC(N2CC(c3ccc4c(c3C)Nc3nccc(C5CCOCC5)c3CO4)C2)CC1` [Compound 131], for which the IC50 in experiment [1] was above 10 µM; in experiment [2] it was 6.61 µM.

In the case of `C#CCCN(C)C/C=C/C(=O)N1CC(N2CCC(c3cc(Cl)c4c(c3)Nc3nccc(N5CCOCC5)c3CO4)CC2)C1` [Compound 168], the IC50 in experiment [1] was above 10 µM; in experiment [2], 0.0776 µM.

In the case of `C=CC(=O)N1CC(N2CCC(c3ccc4c(c3)Nc3nccc(C5CCOCC5)c3CO4)CC2)C1` [Compound 254], in experiment [1], the “CDK7_A549 mutant hCDK7(pIC50)” value is given as below 5. Further, the “CDK7_A549 Wild-type CDK7 (pIC50)” value in experiment [2] amounted to 6.97.

With `C=CC(=O)N1CC(N2CCOC(c3ccc4c(c3)OCc3c(N5CCOCC5)ccnc3N4)C2)C1` (stereo not drawn) [Compound 266], the IC50 in experiment [1] was above 10 µM; in experiment [2] it was around 10.2 µM.

`CC#CC(=O)N1CC(N2CCC(c3cc4c(c(C)n3)OCc3c(-c5cnn(C)c5)ccnc3N4)CC2)C1` [Compound 276]: the IC50 was above 10 µM in experiment [1] and 0.195 µM in experiment [2].

Turning to `C=CC(=O)N1CC(c2nc(C)c(-c3cc4c(c(C)n3)OCc3c(N5CCOCC5)ccnc3N4)c(C)n2)C1` [Compound 280], the values for the IC50 in experiment [1] and in experiment [2] were above 10 µM and 0.126 µM, respectively.

With `C=CC(=O)N1CCC(N2CC(c3cc4c(cn3)OC(C)(C)c3c(-c5cnn(C)c5)ccnc3N4)C2)CC1` [Compound 320], the IC50 in experiment [1] and in experiment [2] was above 10 µM throughout.

In the case of `CC(=O)N1CCC(N2CC(c3cc4c(c(C)n3)OCc3c(-c5cnn(C)c5)ccnc3N4)C2)CC1` [Compound 321], the IC50 in experiment [1] is 8.71 µM; in experiment [2], 9.33 µM.

Consider `CC#CC(=O)N1CC(n2cc(-c3cc4c(c(C)n3)OCc3c(N5CCOCC5)ccnc3N4)cn2)C1` [Compound 346], for which the results for the IC50 in experiment [1] and in experiment [2] were above 10 µM and 0.191 µM, respectively.
